In US10781211B2, “Spirocycle compounds and methods of making and using same” (Lundbeck La Jolla Research Center, Inc., priority 2016, dated 2020):

Experiments:
Type in all cases: in vivo
Conditions in all cases: 5 mg/kg oral gavage
MAGL = MAGL (Mus musculus (Mouse), UniProt O35678); test: Mouse brain proteomes from inhibitor treated mice (oral gavage, sacrifice 4 h after administration, ABPP analysis)
Summary of the method: (§1)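 Wild-type C57Bl/6J mice were dosed by oral gavage in vehicle (e.g. PEG400/Ethanol/PBS 7/2/1) and sacrificed 4 h later. Brain proteomes were analysed by activity-based protein profiling; values are % inhibition at 5 mg/kg.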

FAAH = FAAH (Mus musculus (Mouse), UniProt O08914); test: Mouse brain proteomes from inhibitor treated mice (oral gavage, sacrifice 4 h after administration, ABPP analysis), FAAH
Summary of the method: as §1

ABHD6 = ABHD6 (Mus musculus (Mouse), UniProt Q8R2Y0); test: Mouse brain proteomes from inhibitor treated mice (oral gavage, sacrifice 4 h after administration, ABPP analysis), ABHD6
Summary of the method: as §1

Chain of ABHD6 (Q8R2Y0 whole entry): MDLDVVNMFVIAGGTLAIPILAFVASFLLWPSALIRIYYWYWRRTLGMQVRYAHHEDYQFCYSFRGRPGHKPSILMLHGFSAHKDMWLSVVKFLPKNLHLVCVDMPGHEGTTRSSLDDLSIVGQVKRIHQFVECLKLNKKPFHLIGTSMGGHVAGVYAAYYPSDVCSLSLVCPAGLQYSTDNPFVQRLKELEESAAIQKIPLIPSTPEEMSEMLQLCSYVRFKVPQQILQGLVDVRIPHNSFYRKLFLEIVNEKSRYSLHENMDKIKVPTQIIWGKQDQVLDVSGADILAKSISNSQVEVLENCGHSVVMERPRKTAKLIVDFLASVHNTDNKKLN
Chain of FAAH (O08914 whole entry): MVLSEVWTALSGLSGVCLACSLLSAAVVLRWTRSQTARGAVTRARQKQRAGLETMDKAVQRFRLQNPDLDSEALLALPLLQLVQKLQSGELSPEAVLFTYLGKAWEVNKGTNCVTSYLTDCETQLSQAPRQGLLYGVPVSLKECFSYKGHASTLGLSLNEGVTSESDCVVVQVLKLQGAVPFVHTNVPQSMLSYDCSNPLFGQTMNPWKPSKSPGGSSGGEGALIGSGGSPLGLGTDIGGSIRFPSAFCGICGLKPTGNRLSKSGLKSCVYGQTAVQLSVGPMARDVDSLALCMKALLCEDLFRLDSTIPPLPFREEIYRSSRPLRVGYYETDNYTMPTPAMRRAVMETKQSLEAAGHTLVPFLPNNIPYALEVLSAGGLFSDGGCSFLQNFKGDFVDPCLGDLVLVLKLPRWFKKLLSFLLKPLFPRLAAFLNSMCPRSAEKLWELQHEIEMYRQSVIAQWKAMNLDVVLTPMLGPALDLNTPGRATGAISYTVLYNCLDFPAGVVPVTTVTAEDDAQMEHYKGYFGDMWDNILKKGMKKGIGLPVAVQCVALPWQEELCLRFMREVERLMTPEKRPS
Chain of MAGL (O35678 whole entry): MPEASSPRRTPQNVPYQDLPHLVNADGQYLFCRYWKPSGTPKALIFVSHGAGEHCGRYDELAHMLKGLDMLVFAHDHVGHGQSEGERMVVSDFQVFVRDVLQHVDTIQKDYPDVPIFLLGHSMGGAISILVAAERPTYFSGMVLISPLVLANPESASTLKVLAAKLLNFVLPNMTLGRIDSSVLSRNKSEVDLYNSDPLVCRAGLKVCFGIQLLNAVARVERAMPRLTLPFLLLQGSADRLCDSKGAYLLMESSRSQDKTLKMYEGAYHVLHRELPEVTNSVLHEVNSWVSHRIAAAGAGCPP

With O=C(O)C1CCN(c2cc(Cl)ccc2CN2CCCC23CCN(C(=O)OC(C(F)(F)F)C(F)(F)F)CC3)CC1 [Example 120, 1-(5-Chloro-2-((8-(((1,1,1,3,3,3-hexafluoropropan-2-yl)oxy)carbonyl)-1,8-diazaspiro[4.5]decan-1-yl)methyl)phenyl)piperidine-4-carboxylic acid] the “MAGL % Inh 5 mg/kg (mouse)” value (MAGL) was “### (### is ≥ 75%)”, the “FAAH % Inh 5 mg/kg (mouse)” value (FAAH) was “# (# is < 25%)” and the “ABHD6 % Inh 5 mg/kg (mouse)” value (ABHD6) was “# (# is < 25%)”.
With O=C(O)C1CCN(c2cc(C(F)(F)F)ccc2CN2CCCC23CCN(C(=O)OC(C(F)(F)F)C(F)(F)F)CC3)CC1 [Example 121, 1-(2-((8-(((1,1,1,3,3,3-Hexafluoropropan-2-yl)oxy)carbonyl)-1,8-diazaspiro[4.5]decan-1-yl)methyl)-5-(trifluoromethyl)phenyl)piperidine-4-carboxylic acid] the “MAGL % Inh 5 mg/kg (mouse)” value (MAGL) was “### (### is ≥ 75%)”, the “FAAH % Inh 5 mg/kg (mouse)” value (FAAH) was “# (# is < 25%)” and the “ABHD6 % Inh 5 mg/kg (mouse)” value (ABHD6) was “# (# is < 25%)”.
In the case of Cc1cc(CN2CCCC23CCN(C(=O)OC(C(F)(F)F)C(F)(F)F)CC3)ccc1Cl [Example 124, 1,1,1,3,3,3-Hexafluoropropan-2-yl 1-(4-chloro-3-methylbenzyl)-1,8-diazaspiro[4.5]decane-8-carboxylate], the “MAGL % Inh 5 mg/kg (mouse)” value (MAGL) is reported as “### (### is ≥ 75%)”, the “FAAH % Inh 5 mg/kg (mouse)” value (FAAH) is reported as “# (# is < 25%)” and the “ABHD6 % Inh 5 mg/kg (mouse)” value (ABHD6) is reported as “# (# is < 25%)”.
In the case of Cc1ccc(CN2CCCC23CCN(C(=O)OC(C(F)(F)F)C(F)(F)F)CC3)cc1Cl [Example 125, 1,1,1,3,3,3-Hexafluoropropan-2-yl 1-(3-chloro-4-methylbenzyl)-1,8-diazaspiro[4.5]decane-8-carboxylate], the “MAGL % Inh 5 mg/kg (mouse)” value (MAGL) is reported as “### (### is ≥ 75%)”, the “FAAH % Inh 5 mg/kg (mouse)” value (FAAH) is reported as “# (# is < 25%)” and the “ABHD6 % Inh 5 mg/kg (mouse)” value (ABHD6) is reported as “# (# is < 25%)”.
With O=C(OC(C(F)(F)F)C(F)(F)F)N1CCC2(CCCN2Cc2ccc(N3CCCC3)c(Cl)c2)CC1 [Example 128, 1,1,1,3,3,3-Hexafluoropropan-2-yl 1-(3-chloro-4-(pyrrolidin-1-yl)benzyl)-1,8-diazaspiro[4.5]decane-8-carboxylate] the “MAGL % Inh 5 mg/kg (mouse)” value (MAGL) was “### (### is ≥ 75%)”, the “FAAH % Inh 5 mg/kg (mouse)” value (FAAH) was “# (# is < 25%)” and the “ABHD6 % Inh 5 mg/kg (mouse)” value (ABHD6) was “# (# is < 25%)”.
For O=C(OC(C(F)(F)F)C(F)(F)F)N1CCC2(CCCN2Cc2ccc(N3CCOCC3)c(C(F)(F)F)c2)CC1 [Example 129, 1,1,1,3,3,3-Hexafluoropropan-2-yl 1-(4-morpholino-3-(trifluoromethyl)benzyl)-1,8-diazaspiro[4.5]decane-8-carboxylate], the “MAGL % Inh 5 mg/kg (mouse)” value (MAGL) was “### (### is ≥ 75%)”, the “FAAH % Inh 5 mg/kg (mouse)” value (FAAH) was “# (# is < 25%)” and the “ABHD6 % Inh 5 mg/kg (mouse)” value (ABHD6) was “# (# is < 25%)”.
With O=C(OC(C(F)(F)F)C(F)(F)F)N1CCC2(CCCN2Cc2ccc(N3CCCC3)c(C(F)(F)F)c2)CC1 [Example 130, 1,1,1,3,3,3-Hexafluoropropan-2-yl 1-(4-(pyrrolidin-1-yl)-3-(trifluoromethyl)benzyl)-1,8-diazaspiro[4.5]decane-8-carboxylate] the “MAGL % Inh 5 mg/kg (mouse)” value (MAGL) was “### (### is ≥ 75%)”, the “FAAH % Inh 5 mg/kg (mouse)” value (FAAH) was “# (# is < 25%)” and the “ABHD6 % Inh 5 mg/kg (mouse)” value (ABHD6) was “# (# is < 25%)”.
In the case of O=C(OC(C(F)(F)F)C(F)(F)F)N1CCC2(CCCN2Cc2ccc(Cl)c(N3CCCC3)c2)CC1 [Example 132, 1,1,1,3,3,3-Hexafluoropropan-2-yl 1-(4-chloro-3-(pyrrolidin-1-yl)benzyl)-1,8-diazaspiro[4.5]decane-8-carboxylate], the “MAGL % Inh 5 mg/kg (mouse)” value (MAGL) is reported as “### (### is ≥ 75%)”, the “FAAH % Inh 5 mg/kg (mouse)” value (FAAH) is reported as “# (# is < 25%)” and the “ABHD6 % Inh 5 mg/kg (mouse)” value (ABHD6) is reported as “# (# is < 25%)”.
For O=C(OC(C(F)(F)F)C(F)(F)F)N1CCC2(CCCN2Cc2ccc(C(F)(F)F)c(N3CCOCC3)c2)CC1 [Example 133, 1,1,1,3,3,3-Hexafluoropropan-2-yl 1-(3-morpholino-4-(trifluoromethyl)benzyl)-1,8-diazaspiro[4.5]decane-8-carboxylate], the “MAGL % Inh 5 mg/kg (mouse)” value (MAGL) was “### (### is ≥ 75%)”, the “FAAH % Inh 5 mg/kg (mouse)” value (FAAH) was “# (# is < 25%)” and the “ABHD6 % Inh 5 mg/kg (mouse)” value (ABHD6) was “# (# is < 25%)”.
O=C(OC(C(F)(F)F)C(F)(F)F)N1CCC2(CCCN2Cc2ccc(C(F)(F)F)c(N3CCCC3)c2)CC1 [Example 134, 1,1,1,3,3,3-Hexafluoropropan-2-yl 1-(3-(pyrrolidin-1-yl)-4-(trifluoromethyl)benzyl)-1,8-diazaspiro[4.5]decane-8-carboxylate] was tested, and the “MAGL % Inh 5 mg/kg (mouse)” value (MAGL) was “### (### is ≥ 75%)”, the “FAAH % Inh 5 mg/kg (mouse)” value (FAAH) was “# (# is < 25%)” and the “ABHD6 % Inh 5 mg/kg (mouse)” value (ABHD6) was “# (# is < 25%)”.
In the case of CCc1cc(CN2CCCC23CCN(C(=O)OC(C(F)(F)F)C(F)(F)F)CC3)ccc1F [Example 150, 1,1,1,3,3,3-Hexafluoropropan-2-yl 1-(3-ethyl-4-fluorobenzyl)-1,8-diazaspiro[4.5]decane-8-carboxylate], the “MAGL % Inh 5 mg/kg (mouse)” value (MAGL) is reported as “### (### is ≥ 75%)”, the “FAAH % Inh 5 mg/kg (mouse)” value (FAAH) is reported as “# (# is < 25%)” and the “ABHD6 % Inh 5 mg/kg (mouse)” value (ABHD6) is reported as “# (# is < 25%)”.
For CCc1cc(CN2CCC3(CCN(C(=O)OC(C(F)(F)F)C(F)(F)F)CC3)C2)ccc1F [Example 152, 1,1,1,3,3,3-Hexafluoropropan-2-yl 2-(3-ethyl-4-fluorobenzyl)-2,8-diazaspiro[4.5]decane-8-carboxylate], the “MAGL % Inh 5 mg/kg (mouse)” value (MAGL) was “### (### is ≥ 75%)”, the “FAAH % Inh 5 mg/kg (mouse)” value (FAAH) was “# (# is < 25%)” and the “ABHD6 % Inh 5 mg/kg (mouse)” value (ABHD6) was “### (### is ≥ 75%)”.
CN1CCC(Oc2cc(CN3CCCC34CCN(C(=O)OC(C(F)(F)F)C(F)(F)F)CC4)cc(C(F)(F)F)c2)CC1 [Example 166, 1,1,1,3,3,3-Hexafluoropropan-2-yl 1-(3-(1-methylpiperidin-4-yloxy)-5-(trifluoromethyl)benzyl)-1,8-diazaspiro[4.5]decane-8-carboxylate] was tested, and the “MAGL % Inh 5 mg/kg (mouse)” value (MAGL) was “# (# is < 25%)”, the “FAAH % Inh 5 mg/kg (mouse)” value (FAAH) was “# (# is < 25%)” and the “ABHD6 % Inh 5 mg/kg (mouse)” value (ABHD6) was “# (# is < 25%)”.
For O=C(OC(C(F)(F)F)C(F)(F)F)N1CCC2(CCCN2Cc2cc(Oc3nc4ccccc4s3)cc(C(F)(F)F)c2)CC1 [Example 172, 1,1,1,3,3,3-Hexafluoropropan-2-yl 1-(3-(benzo[d]thiazol-2-yloxy)-5-(trifluoromethyl)benzyl)-1,8-diazaspiro[4.5]decane-8-carboxylate], the “MAGL % Inh 5 mg/kg (mouse)” value (MAGL) was “# (# is < 25%)”, the “FAAH % Inh 5 mg/kg (mouse)” value (FAAH) was “# (# is < 25%)” and the “ABHD6 % Inh 5 mg/kg (mouse)” value (ABHD6) was “# (# is < 25%)”.
Cc1cc(CN2CCCC23CCN(C(=O)OC(C(F)(F)F)C(F)(F)F)CC3)ccc1C(F)(F)F [Example 177, 1,1,1,3,3,3-Hexafluoropropan-2-yl 1-(3-methyl-4-(trifluoromethyl)benzyl)-1,8-diazaspiro[4.5]decane-8-carboxylate] was tested, and the “MAGL % Inh 5 mg/kg (mouse)” value (MAGL) was “### (### is ≥ 75%)”, the “FAAH % Inh 5 mg/kg (mouse)” value (FAAH) was “# (# is < 25%)” and the “ABHD6 % Inh 5 mg/kg (mouse)” value (ABHD6) was “# (# is < 25%)”.
In the case of O=C(OC(C(F)(F)F)C(F)(F)F)N1CCC2(CCCN2Cc2ccc(C(F)(F)F)c(Cl)c2)CC1 [Example 183, 1,1,1,3,3,3-Hexafluoropropan-2-yl 1-(3-chloro-4-(trifluoromethyl)benzyl)-1,8-diazaspiro[4.5]decane-8-carboxylate], the “MAGL % Inh 5 mg/kg (mouse)” value (MAGL) is reported as “### (### is ≥ 75%)”, the “FAAH % Inh 5 mg/kg (mouse)” value (FAAH) is reported as “# (# is < 25%)” and the “ABHD6 % Inh 5 mg/kg (mouse)” value (ABHD6) is reported as “# (# is < 25%)”.
In the case of O=C(OC(C(F)(F)F)C(F)(F)F)N1CCC2(CCCN2Cc2ccc(Cl)c(C(F)(F)F)c2)CC1 [Example 184, 1,1,1,3,3,3-Hexafluoropropan-2-yl 1-(4-chloro-3-(trifluoromethyl)benzyl)-1,8-diazaspiro[4.5]decane-8-carboxylate], the “MAGL % Inh 5 mg/kg (mouse)” value (MAGL) is reported as “### (### is ≥ 75%)”, the “FAAH % Inh 5 mg/kg (mouse)” value (FAAH) is reported as “# (# is < 25%)” and the “ABHD6 % Inh 5 mg/kg (mouse)” value (ABHD6) is reported as “# (# is < 25%)”.
With CC1(C(=O)O)CN(c2cc(CN3CCCC34CCN(C(=O)OC(C(F)(F)F)C(F)(F)F)CC4)cc(C(F)(F)F)c2)CCO1 (stereo not drawn) [Example 195, 4-(3-((8-(((1,1,1,3,3,3-hexafluoropropan-2-yl)oxy)carbonyl)-1,8-diazaspiro[4.5]decan-1-yl)methyl)-5-(trifluoromethyl)phenyl)-2-methylmorpholine-2-carboxylic acid] the “MAGL % Inh 5 mg/kg (mouse)” value (MAGL) was “# (# is < 25%)”, the “FAAH % Inh 5 mg/kg (mouse)” value (FAAH) was “# (# is < 25%)” and the “ABHD6 % Inh 5 mg/kg (mouse)” value (ABHD6) was “# (# is < 25%)”.
For O=C(O)[C@@H]1CCCCN1c1cc(CN2CCCC23CCN(C(=O)OC(C(F)(F)F)C(F)(F)F)CC3)cc(C(F)(F)F)c1 [Example 196, (S)-1-(3-((8-(((1,1,1,3,3,3-Hexafluoropropan-2-yl)oxy)carbonyl)-1,8-diazaspiro[4.5]decan-1-yl)methyl)-5-(trifluoromethyl)phenyl)piperidine-2-carboxylic acid], the “MAGL % Inh 5 mg/kg (mouse)” value (MAGL) was “### (### is ≥ 75%)”, the “FAAH % Inh 5 mg/kg (mouse)” value (FAAH) was “# (# is < 25%)” and the “ABHD6 % Inh 5 mg/kg (mouse)” value (ABHD6) was “# (# is < 25%)”.
In the case of O=C(O)C1CN(c2cc(C(F)(F)F)ccc2CN2CCCC23CCN(C(=O)OC(C(F)(F)F)C(F)(F)F)CC3)CCO1 (stereo not drawn) [Example 197, 4-(2-((8-(((1,1,1,3,3,3-Hexafluoropropan-2-yl)oxy)carbonyl)-1,8-diazaspiro[4.5]decan-1-yl)methyl)-5-(trifluoromethyl)phenyl)morpholine-2-carboxylic acid], the “MAGL % Inh 5 mg/kg (mouse)” value (MAGL) is reported as “# (# is < 25%)”, the “FAAH % Inh 5 mg/kg (mouse)” value (FAAH) is reported as “# (# is < 25%)” and the “ABHD6 % Inh 5 mg/kg (mouse)” value (ABHD6) is reported as “# (# is < 25%)”.
